{"source": "patent US4888336A", "about": "“Steroid 5-alpha-reductase inhibitors” (SmithKline Beckman Corporation, priority 1987, dated 1989)", "key": {"[1]": {"molecular_target": "T1, human steroid 5-alpha-reductase (Homo sapiens, UniProt P31213)", "T1 construct": "Prostatic particles were obtained by differential centrifugation; from tissue; host or cells: hyperplastic human prostate, washed 140,000×g particulate fraction", "T1 sequence (P31213 1-254)": "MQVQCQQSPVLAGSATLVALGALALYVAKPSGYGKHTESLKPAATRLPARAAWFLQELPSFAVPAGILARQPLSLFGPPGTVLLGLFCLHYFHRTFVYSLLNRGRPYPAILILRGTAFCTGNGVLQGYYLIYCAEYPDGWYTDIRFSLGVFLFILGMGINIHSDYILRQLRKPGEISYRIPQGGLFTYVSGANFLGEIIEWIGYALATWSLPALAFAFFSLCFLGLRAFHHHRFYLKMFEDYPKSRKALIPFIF", "experiment": "Inhibition of human prostatic steroid 5-alpha-reductase ([14C]-testosterone conversion, Dixon plot)", "type": "biochemical", "experimental": "In determining potency in inhibiting the human enzyme, the following procedure was employed:\nThe tissue was homogenized in 3 to 5 volumes of 20 mM potassium phosphate, pH 6.5, buffer containing 0.33 M sucrose, 1 mM dithiothreitol, and 50 μM NADPH with a Brinkmann Polytron (Sybron Corporation, Westbury, N.Y.).\nThe resulting pellet was suspended in 20 mM potassium phosphate buffer, pH 6.5, containing 20% glycerol, 1 mM dithiothreitol, and 50 μM NADPH. The suspended particulate solution was stored at -80° C.\nAfter incubating the solution at 37° C. for 20 to 30 minutes the reaction was quenched by the addition of 4 ml ethyl acetate and 0.25 μmol each of testosterone, dihydrotestosterone, androstanediol, and androstanedione as carriers. The organic layer was removed to a second test tube and evaporated to dryness in a Speed Vac. […] The radiochemical content in the bands of the substrate and the products was determined with a BIOSCAN Imaging Scanner (Bioscan, Inc., Washington, D.C.). The percent of recovered radiolabel converted to product was calculated, from which enzyme activity was determined. All incubations were conducted such that no more than 12% of the substrate (testosterone) was consumed.\nThe experimentally obtained data was computer fitted to a linear function by plotting the reciprocal of the enzyme activity (1/velocity) against the variable inhibitor concentration (Dixon, M. (1953), Biochem. J., 55, 170). Assuming that the steroidal inhibitor is a competitive inhibitor against testosterone, a value for the inhibition constant (Ki) can be calculated from equation 1: […]"}, "[2]": {"tested_on": "steroid 5-alpha-reductase", "experiment": "In vivo inhibition of steroid 5-alpha-reductase: T and DHT levels in rat ventral prostate, 6 hours after oral dosing (Table III)", "set-up": "species or system Male Charles River CD rats", "conditions": "for DHT level / T level: ± SEM"}, "[3]": {"tested_on": "Steroid 5-alpha-reductase", "conditions": "cited from earlier work; for Reversibility of inhibition: Table 1; for Inhibition of steroid 5-alpha-reductase, in words: literature description"}, "5-alpha-reductase": {"tested_on": "5-alpha-reductase", "experiment": "Time course of in vivo 5-alpha-reductase inhibition: T and DHT in rat ventral prostate (Table IV)", "set-up": "species or system rats", "conditions": "for DHT level / T level: ventral prostate, mean + SEM; for DHT level: ** P < .05; for T level: listed as name T not given"}, "[4]": {"conditions": "read-out: K1 (5-alpha-Reductase Inhibitors)"}, "[5]": {"conditions": "human hyperplastic prostate particulate, pH 5.0, 37° C., read-out: Ki"}}, "note": "Read-outs that look alike come from different tables or passages of the source.", "data": [{"compound": "C[C@@H](CO)[C@H]1CCC2=C3CC[C@H]4N(C)C(=O)CC[C@]4(C)[C@H]3CC[C@@]21C", "note": "[(1)]", "values": [{"measurement": "Ki", "setting": "[1]", "value": "450 ± 20", "unit": "nM"}]}, {"compound": "C[C@@H](CO)[C@H]1CCC2=C3CC[C@H]4N(C)C(=O)CC[C@]4(C)[C@H]3CC[C@@]21C", "note": "[(20R)-Hydroxymethyl-4-methyl-4-aza-5-alpha-8(14)-pregnen-3-one]", "values": [{"measurement": "T/DHT", "setting": "[2]; 5 mg/kg oral", "value": 0.72}, {"measurement": "DHT level", "setting": "[2]; 5 mg/kg oral", "value": "0.72 ± .21 ng/100 mg ventral prostate tissue"}, {"measurement": "T level", "setting": "[2]; 5 mg/kg oral", "value": "0.52 ± .27 ng/100 mg ventral prostate tissue"}, {"measurement": "T/DHT", "setting": "[2]; 10 mg/kg oral", "value": 0.83}, {"measurement": "DHT level", "setting": "[2]; 10 mg/kg oral", "value": "0.53 ± .12 ng/100 mg ventral prostate tissue"}, {"measurement": "T level", "setting": "[2]; 10 mg/kg oral", "value": "0.44 ± .13 ng/100 mg ventral prostate tissue"}, {"measurement": "T/DHT", "setting": "[2]; 20 mg/kg oral", "value": 0.92}, {"measurement": "DHT level", "setting": "[2]; 20 mg/kg oral", "value": "0.49 ± .14 ng/100 mg ventral prostate tissue"}, {"measurement": "T level", "setting": "[2]; 20 mg/kg oral", "value": "0.45 ± .12 ng/100 mg ventral prostate tissue"}]}, {"compound": "CCN(CC)C(=O)[C@H]1CC[C@H]2[C@@H]3CC[C@H]4N(C)C(=O)CC[C@]4(C)[C@H]3CC[C@]12C", "note": "[(4)]", "values": [{"measurement": "Reversibility of inhibition", "setting": "[3]", "value": "Reversible"}, {"measurement": "Ki", "setting": "[3]; [4]", "value": 5, "unit": "nM"}]}, {"compound": "CC(C)N(C(=O)[C@H]1CCC2=C3CC[C@H]4N(C)C(=O)CC[C@]4(C)[C@H]3CC[C@@]21C)C(C)C", "note": "[(3)]", "values": [{"measurement": "Ki", "setting": "[1]; [5]", "value": "8 ± 2", "unit": "nM"}]}, {"compound": "C[C@]12CC[C@H]3[C@@H](CCC4=CC(=O)CC[C@@]43C)[C@@H]1CC[C@@H]2C(=O)O", "note": "[(1)]", "values": [{"measurement": "Reversibility of inhibition", "setting": "[3]", "value": "Reversible"}, {"measurement": "Ki", "setting": "[3]; [4]", "value": 1100, "unit": "nM"}]}, {"compound": "C[C@@H](C(=O)O)[C@H]1CCC2=C3CC[C@H]4N(C)C(=O)CC[C@]4(C)[C@H]3CC[C@@]21C", "note": "[(2)]", "values": [{"measurement": "Ki", "setting": "[1]; [5]", "value": "100 ± 10", "unit": "nM"}]}, {"compound": "CC(C)N(C(=O)[C@H]1CCC2=C3CC[C@H]4N(C)C(=O)CC[C@]4(C)[C@H]3CC[C@@]21C)C(C)C", "note": "[4-Methyl-4-aza-5-alpha-8(14)-androsten-3-one-17β-N,N-diisopropylcarboxamide]", "values": [{"measurement": "T/DHT", "setting": "5-alpha-reductase; 1 Hour", "value": 1.00}, {"measurement": "DHT level", "setting": "5-alpha-reductase; 1 Hour", "value": ".532 ± .08 ng/100 mg tissue"}, {"measurement": "T level", "setting": "5-alpha-reductase; 1 Hour", "value": ".533 ± .15 ng/100 mg tissue"}, {"measurement": "T/DHT", "setting": "5-alpha-reductase; 2 Hours", "value": ".97"}, {"measurement": "DHT level", "setting": "5-alpha-reductase; 2 Hours", "value": ".496 ± .05 ng/100 mg tissue"}, {"measurement": "T level", "setting": "5-alpha-reductase; 2 Hours", "value": ".481 ± .12 ng/100 mg tissue"}, {"measurement": "T/DHT", "setting": "5-alpha-reductase; 4 Hours", "value": 1.20}, {"measurement": "DHT level", "setting": "5-alpha-reductase; 4 Hours", "value": ".504 ± .09 ng/100 mg tissue"}, {"measurement": "T level", "setting": "5-alpha-reductase; 4 Hours", "value": ".607 ± .24 ng/100 mg tissue"}, {"measurement": "T/DHT", "setting": "5-alpha-reductase; 8 Hours", "value": 1.13}, {"measurement": "DHT level", "setting": "5-alpha-reductase; 8 Hours", "value": ".498 ± .04 ng/100 mg tissue"}, {"measurement": "T level", "setting": "5-alpha-reductase; 8 Hours", "value": ".565 ± .16 ng/100 mg tissue"}, {"measurement": "Difference in DHT levels compared to controls, in words", "setting": "5-alpha-reductase; at 1, 2, 4, and 8 hours, P < .05", "value": "significant differences in DHT levels"}]}, {"compound": "C=C1C[C@@H]2[C@H](CC[C@@]3(C)[C@H]2CC[C@]3(OC(C)=O)C(C)=O)[C@@]2(C)CCC(=O)C=C12", "note": "[(5)]", "values": [{"measurement": "Reversibility of inhibition", "setting": "[3]", "value": "Irreversible"}, {"measurement": "Inhibition of steroid 5-alpha-reductase, in words", "setting": "[3]", "value": "time-dependent inactivator"}, {"measurement": "Ki", "setting": "[3]; [4]", "value": 1250, "unit": "nM"}]}, {"compound": "CC(=O)C1CCC2C3CC=C=CC(=O)CCC(=O)C3CCC12C", "note": "(stereo not shown) [(2)]", "values": [{"measurement": "Reversibility of inhibition", "setting": "[3]", "value": "Irreversible"}, {"measurement": "Ki", "setting": "[3]; [4]", "value": 1000, "unit": "nM"}]}, {"compound": "CC(CO)[C@H]1CC[C@H]2[C@@H]3CC[C@H]4C(=[N+]=[N-])C(=O)CC[C@]4(C)[C@H]3CC[C@]12C", "note": "(stereo partly shown) [(3)]", "values": [{"measurement": "Reversibility of inhibition", "setting": "[3]", "value": "Irreversible"}, {"measurement": "Ki", "setting": "[3]; line (3) printed without unit, read-out: K1 (5-alpha-Reductase Inhibitors), unit inferred", "value": 35, "unit": "nM"}, {"measurement": "Inhibition of steroid 5-alpha-reductase, in words", "setting": "[3]", "value": "potent, time-dependent inhibitor"}]}, {"compound": "C[C@@H](C(=O)O)[C@H]1CCC2=C3CC[C@H]4N(C)C(=O)CC[C@]4(C)[C@H]3CC[C@@]21C", "note": "[4-Methyl-4-aza-5-alpha-8(14)-pregnen-3-one-(20R)-20-carboxylic acid]", "values": [{"measurement": "T/DHT", "setting": "[2]; 5 mg/kg oral", "value": 0.79}, {"measurement": "DHT level", "setting": "[2]; 5 mg/kg oral", "value": "0.43 ± .12 ng/100 mg ventral prostate tissue"}, {"measurement": "T level", "setting": "[2]; 5 mg/kg oral", "value": "0.34 ± .11 ng/100 mg ventral prostate tissue"}, {"measurement": "T/DHT", "setting": "[2]; 10 mg/kg oral", "value": 0.76}, {"measurement": "DHT level", "setting": "[2]; 10 mg/kg oral", "value": "0.34 ± .09 ng/100 mg ventral prostate tissue"}, {"measurement": "T level", "setting": "[2]; 10 mg/kg oral", "value": "0.26 ± .07 ng/100 mg ventral prostate tissue"}, {"measurement": "T/DHT", "setting": "[2]; 20 mg/kg oral", "value": 0.88}, {"measurement": "DHT level", "setting": "[2]; 20 mg/kg oral", "value": "0.34 ± .06 ng/100 mg ventral prostate tissue"}, {"measurement": "T level", "setting": "[2]; 20 mg/kg oral", "value": "0.30 ± .04 ng/100 mg ventral prostate tissue"}]}]}
